Results reported in patent US8426437B2, “Pyrroloquinoline derivatives and their use as protein kinases inhibitors” (Pierre Fabre Medicament, priority 2005, dated 2013).
Where a name gives a salt, the structure may show the parent alone.

Biological target: T1, RET (Homo sapiens, UniProt P07949)
T1 construct: purchased Upstate 14-570MG
Test: Inhibition of RET kinase activity, recombinant RET method (Kinase-Glo)
Assay type: biochemical
Conditions: RET 2 μg/ml, poly-EY4 substrate, 20 μM ATP, two hours at 30° C.
Method: The inhibition of the kinase activity of the compounds of the invention is assessed by measuring their IC50 on RET.
where: • Y is the value of the luminescence • X is the logarithm of the concentration of the compound • Bottom is the minimum Y value • Top is the maximum Y value • LogIC50 is the value of X when Y is 50% from Top—Bottom.
The quantity of RET required is 2 μg/ml.
The following buffer is used for dilution of RET: 20 mM MOPS/NaOH pH7.0, 1 mM EDTA, 5% glycerol, 0.01% Brij35 (Sigma B4184), 0.1% 2-mercaptoethanol, 1 mg/ml BSA (Sigma A3059-10G).
The dilution of the compounds of the invention is distributed so as to obtain a scale of final concentrations between 10 nM and 30 μM.
After incubation of the reaction mixture for two hours at 30° C., the level of ATP that remains is assayed using the Kinase-Glo Luminescent Kinase Assay (Promega #V6712) according to the conditions recommended by the supplier. The luminescence induced is read in a plate reader (Envision-Perkin Elmer).

T1 sequence (P07949 29-1114): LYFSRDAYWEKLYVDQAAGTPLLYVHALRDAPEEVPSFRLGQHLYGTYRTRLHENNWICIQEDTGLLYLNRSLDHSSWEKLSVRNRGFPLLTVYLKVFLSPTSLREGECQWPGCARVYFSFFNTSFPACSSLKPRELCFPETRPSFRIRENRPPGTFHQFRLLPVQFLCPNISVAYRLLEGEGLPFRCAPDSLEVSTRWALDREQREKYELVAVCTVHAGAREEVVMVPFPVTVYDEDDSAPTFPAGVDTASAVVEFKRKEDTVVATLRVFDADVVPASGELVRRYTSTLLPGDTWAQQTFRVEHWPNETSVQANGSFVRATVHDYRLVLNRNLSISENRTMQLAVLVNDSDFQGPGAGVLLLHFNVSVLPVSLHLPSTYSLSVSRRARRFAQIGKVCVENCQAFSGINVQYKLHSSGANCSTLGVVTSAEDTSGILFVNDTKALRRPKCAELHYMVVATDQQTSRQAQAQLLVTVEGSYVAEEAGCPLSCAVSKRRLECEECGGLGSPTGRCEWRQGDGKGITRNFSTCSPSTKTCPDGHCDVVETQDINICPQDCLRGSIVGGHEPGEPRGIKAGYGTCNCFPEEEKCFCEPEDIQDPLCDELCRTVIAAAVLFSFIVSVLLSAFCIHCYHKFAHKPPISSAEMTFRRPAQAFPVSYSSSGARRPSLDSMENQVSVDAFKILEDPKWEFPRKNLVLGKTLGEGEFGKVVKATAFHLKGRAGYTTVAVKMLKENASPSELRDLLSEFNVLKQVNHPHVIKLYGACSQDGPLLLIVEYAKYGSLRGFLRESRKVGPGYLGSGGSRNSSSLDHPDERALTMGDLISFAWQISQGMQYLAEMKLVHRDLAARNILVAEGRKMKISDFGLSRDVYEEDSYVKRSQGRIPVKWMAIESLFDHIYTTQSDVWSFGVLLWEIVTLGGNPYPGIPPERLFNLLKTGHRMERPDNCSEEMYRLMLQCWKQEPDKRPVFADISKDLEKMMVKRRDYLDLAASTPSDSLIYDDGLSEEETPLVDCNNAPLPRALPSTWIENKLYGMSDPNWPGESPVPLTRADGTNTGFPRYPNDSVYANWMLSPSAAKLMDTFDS

Row | SMILES | IC50 [nM]
1 | CCOC(=O)c1c[nH]c2c(=O)[nH]c3ccc(S(=O)(=O)NC4CC5CCC(C4)N5)cc3c12 (stereo not drawn) [Compound 122, 8-(8-Aza-bicyclo[3.2.1]oct-3-ylsulfamoyl)-4-oxo-4,5-dihydro-3H-pyrrolo[2,3-c]quinoline-1-ethyl carboxylate] | < 100
2 | CCOC(=O)c1c[nH]c2c(=O)[nH]c3ccc(C#C[Si](C)(C)C)cc3c12 [Compound 200, 4-Oxo-8-trimethylsilanylethynyl-4,5-dihydro-3H-pyrrolo[2,3-c]quinoline-1-ethyl carboxylate] | 1000 to 10000
3 | CCOC(=O)c1c[nH]c2c(=O)[nH]c3ccc(C#CC(C)(C)O)cc3c12 [Compound 204, 8-(3-Hydroxy-3-methyl-but-1-ynyl)-4-oxo-4,5-dihydro-3H-pyrrolo[2,3-c]quinoline-1-ethyl carboxylate] | 100 to 1000
4 | CCOC(=O)c1c[nH]c2c(=O)[nH]c3ccc(S(=O)(=O)Nc4ccccc4OC)cc3c12 [Compound 7, 8-(2-Methoxy-phenylsulfamoyl)-4-oxo-4,5-dihydro-3H-pyrrolo[2,3-c]quinoline-1-ethyl carboxylate] | 100 to 1000
5 | CCCOC(=O)c1c[nH]c2c(=O)[nH]c3ccc(S(=O)(=O)N4CCC(NC)C4)cc3c12 (stereo not drawn) [Compound 168, 8-(3-Methylamino-pyrrolidine-1-sulfonyl)-4-oxo-4,5-dihydro-3H-pyrrolo[2,3-c]quinoline-1-propyl carboxylate hydrochloride] | 100 to 1000
6 | CCCOC(=O)c1c[nH]c2c(=O)[nH]c3ccc(S(=O)(=O)N(CC)[C@H]4CCNC4)cc3c12 [Compound 160, (S)-8-(Ethyl-pyrrolidin-3-yl-sulfamoyl)-4-oxo-4,5-dihydro-3H-pyrrolo[2,3-c]quinoline-1-propyl carboxylate hydrochloride] | < 100
7 | CCOC(=O)c1c[nH]c2c(=O)[nH]c3ccc(S(N)(=O)=O)cc3c12 [Compound 96, 4-Oxo-8-sulfamoyl-4,5-dihydro-3H-pyrrolo[2,3-c]quinoline-1-ethyl carboxylate] | 100 to 1000
8 | CCOC(=O)c1c[nH]c2c(=O)[nH]c3ccc(NS(=O)(=O)c4cccc(OC)c4)cc3c12 [Compound 51, 8-(3-Methoxy-benzenesulfonylamino)-4-oxo-4,5-dihydro-3H-pyrrolo[2,3-c]quinoline-1-ethyl carboxylate] | 1000 to 10000
9 | CCCOC(=O)c1c[nH]c2c(=O)[nH]c3ccc(S(=O)(=O)N(Cc4c[nH]cn4)C4CC4)cc3c12 [Compound 143, 8-[Cyclopropyl-(1H-imidazol-4-ylmethyl)-sulfamoyl]-4-oxo-4,5-dihydro-3H-pyrrolo[2,3-c]quinoline-1-propyl carboxylate hydrochloride] | 100 to 1000
10 | CCOC(=O)c1c[nH]c2c(=O)[nH]c3ccc(-c4cccc(NS(C)(=O)=O)c4)cc3c12 [Compound 235, 8-(3-Methanesulfonylaminophenyl)-4-oxo-4,5-dihydro-3H-pyrrolo[2,3-c]quinoline-1-ethyl carboxylate] | 100 to 1000
11 | CCCOC(=O)c1c[nH]c2c(=O)[nH]c3ccc(S(=O)(=O)N(CCO)C(C)C)cc3c12 [Compound 173, 8-[(2-Hydroxy-ethyl)isopropyl-sulfamoyl]-4-oxo-4,5-dihydro-3H-pyrrolo[2,3-c]quinoline-1-propyl carboxylate] | < 100
12 | CCOC(=O)c1c[nH]c2c(=O)[nH]c3ccc(S(=O)(=O)Nc4ccc(N5CCOCC5)cc4)cc3c12 [Compound 22, 8-(4-Morpholin-4-yl-phenylsulfamoyl)-4-oxo-4,5-dihydro-3H-pyrrolo[2,3-c]quinoline-1-ethyl carboxylate] | 10000 to 100000
13 | CCOC(=O)c1c[nH]c2c(=O)[nH]c3ccc(-c4ccc(C#N)cc4)cc3c12 [Compound 247, 8-(4-Cyano-phenyl)-4-oxo-4,5-dihydro-3H-pyrrolo[2,3-c]quinoline-1-ethyl carboxylate] | 10000 to 100000
14 | CCOC(=O)c1c[nH]c2c(=O)[nH]c3ccc(S(=O)(=O)Nc4cc(F)cc(F)c4)cc3c12 [Compound 19, 8-(3,5-Difluorophenylsulfamoyl)-4-oxo-4,5-dihydro-3H-pyrrolo[2,3-c]quinoline-1-ethyl carboxylate] | 100 to 1000
15 | CCCOC(=O)c1c[nH]c2c(=O)[nH]c3ccc(S(=O)(=O)N(C)C4CC4)cc3c12 [Compound 125, 8-(Cyclopropyl-methyl-sulfamoyl)-4-oxo-4,5-dihydro-3H-pyrrolo[2,3-c]quinoline-1-propyl carboxylate] | < 100
16 | CCOC(=O)c1c[nH]c2c(=O)[nH]c3ccc(S(=O)(=O)Nc4cccc(F)c4C)cc3c12 [Compound 16, 8-(3-Fluoro-2-methyl-phenylsulfamoyl)-4-oxo-4,5-dihydro-3H-pyrrolo[2,3-c]quinoline-1-ethyl carboxylate] | < 100
17 | CCOC(=O)c1c[nH]c2c(=O)[nH]c3ccc(N(C)S(C)(=O)=O)cc3c12 [Compound 59, 8-(Methanesulfonyl-methyl-amino)-4-oxo-4,5-dihydro-3H-pyrrolo[2,3-c]quinoline-1-ethyl carboxylate] | 100 to 1000

Row | SMILES | IC50 [nM]
18 | C#CCN(CCNC(C)C)S(=O)(=O)c1ccc2[nH]c(=O)c3[nH]cc(C(=O)OCCC)c3c2c1 [Compound 158, 8-[(2-isopropylamino-ethyl)-prop-2-ynyl-sulfamoyl]-4-oxo-4,5-dihydro-3H-pyrrolo[2,3-c]quinoline-1-propyl carboxylate hydrochloride] | 100 to 1000
19 | O=C(c1ccccc1)c1c[nH]c2c(=O)[nH]c3ccccc3c12 [Compound 76, 1-Benzoyl-3,5-dihydro-pyrrolo[2,3-c]quinolin-4-one] | 1000 to 10000
20 | CCCOC(=O)c1c[nH]c2c(=O)[nH]c3ccc(S(=O)(=O)N(C)CCN4CCCC4)cc3c12 [Compound 137, 8-[Methyl-(2-pyrrolidin-1-yl-ethyl)-sulfamoyl]-4-oxo-4,5-dihydro-3H-pyrrolo[2,3-c]quinoline-1-propyl carboxylate] | 100 to 1000
21 | COC(=O)c1c[nH]c2c(=O)[nH]c3ccc(S(=O)(=O)NN4CCN(C)CC4)cc3c12 [Compound 193, 8-(4-Methyl-piperazin-1-ylsulfamoyl)-4-oxo-4,5-dihydro-3H-pyrrolo[2,3-c]quinoline-1-methyl carboxylate] | 1000 to 10000
22 | O=C(Nc1ccccc1)c1c[nH]c2c(=O)[nH]c3ccccc3c12 [Compound 87, N-(Phenyl)-4-oxo-4,5-dihydro-3H-pyrrolo[2,3-c]quinoline-1-carboxamide] | 10000 to 100000
23 | O=C(OC1CCCC1)c1c[nH]c2c(=O)[nH]c3ccc(I)cc3c12 [Compound 211, 8-Iodo-4-oxo-4,5-dihydro-3H-pyrrolo[2,3-c]quinoline-1-cyclopentyl carboxylate] | 1000 to 10000
24 | CCOC(=O)c1c[nH]c2c(=O)[nH]c3ccc(-c4ccnc(N5CCN(c6ccccn6)CC5)n4)cc3c12 [Compound 265, 4-Oxo-8-[2-(4-pyridin-2-yl-piperazin-1-yl)-pyrimidin-4-yl]-4,5-dihydro-3H-pyrrolo[2,3-c]quinoline-1-ethyl carboxylate] | 1000 to 10000
25 | CC(=O)c1c[nH]c2c(=O)[nH]c3ccccc3c12 [Compound 77, 1-Acetyl-3,5-dihydro-pyrrolo[2,3-c]quinolin-4-one] | 10000 to 100000
26 | CCOC(=O)c1c[nH]c2c(=O)[nH]c3ccc(NS(=O)(=O)c4ccc5ccccc5c4)cc3c12 [Compound 54, 8-(Naphthalene-2-sulfonylamino)-4-oxo-4,5-dihydro-3H-pyrrolo[2,3-c]quinoline-1-ethyl carboxylate] | 10000 to 100000
27 | CCOC(=O)c1c[nH]c2c(=O)[nH]c3ccc(S(=O)(=O)Cc4ccccn4)cc3c12 [Compound 196, 4-Oxo-8-(pyridin-2-ylmethanesulfonyl)-4,5-dihydro-3H-pyrrolo[2,3-c]quinoline-1-ethyl carboxylate] | 100 to 1000
28 | CCOC(=O)c1c[nH]c2c(=O)[nH]c3ccc(C#CCN(C)C)cc3c12 [Compound 203, 8-(3-Dimethylamino-prop-1-ynyl)-4-oxo-4,5-dihydro-3H-pyrrolo[2,3-c]quinoline-1-ethyl carboxylate] | 100 to 1000
29 | CCCOC(=O)c1c[nH]c2c(=O)[nH]c3ccc(S(=O)(=O)N4CC[C@H](NC(=O)OC(C)(C)C)C4)cc3c12 [Compound 164, (S)-8-(3-tert-Butoxycarbonylamino-pyrrolidine-1-sulfonyl)-4-oxo-4,5-dihydro-3H-pyrrolo[2,3-c]quinoline-1-propyl carboxylate] | 1000 to 10000
30 | CCOC(=O)c1c[nH]c2c(=O)[nH]c3ccc(-c4cccc5cccnc45)cc3c12 [Compound 250, 4-Oxo-8-quinolin-8-yl-4,5-dihydro-3H-pyrrolo[2,3-c]quinoline-1-ethyl carboxylate] | 1000 to 10000
31 | CCOC(=O)c1c[nH]c2c(=O)[nH]c3ccc(-c4csc(C)n4)cc3c12 [Compound 278, 8-(2-Methyl-thiazol-4-yl)-4-oxo-4,5-dihydro-3H-pyrrolo[2,3-c]quinoline-1-ethyl carboxylate] | 1000 to 10000
32 | CCOC(=O)c1c[nH]c2c(=O)[nH]c3ccc(C#CCN(C)CCC#N)cc3c12 [Compound 206, 8-{3-[(2-Cyano-ethylmethyl-amino]-prop-1-ynyl}-4-oxo-4,5-dihydro-3H-pyrrolo[2,3-c]quinoline-1-ethyl carboxylate] | 100 to 1000
33 | CCCOC(=O)c1c[nH]c2c(=O)[nH]c3ccc(S(=O)(=O)N(C)CCNC)cc3c12 [Compound 139, 8-[Methyl-(2-methylamino-ethyl)-sulfamoyl]-4-oxo-4,5-dihydro-3H-pyrrolo[2,3-c]quinoline-1-propyl carboxylate hydrochloride] | < 100
